The text below walks through data of publication PMC11576293, “New series of 4,6-diaryl pyrimidines: facile synthesis and antiproliferative activity as dual EGFR/VEGFR-2 inhibitors” (Frontiers in Chemistry, 2024).

As a reminder, the inhibition is the drop in the measured response relative to a control, in per cent.

The test system of the first assay is M14. Nature of the assay: NCI-60 single-dose screen. The class given is cell-based. As to conditions: Homo sapiens, single dose 10 µM, '-' = no inhibition, read-out: % Growth Inhibition. In short, it runs like this:
(§1)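 Compounds tested once at 10 μM across the NCI-60 panel of 60 human cancer cell lines spanning nine tumour types (leukemia, lung, colon, CNS, melanoma, ovarian, renal, prostate, breast), run by the NCI Developmental Therapeutics Program.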
`COc1ccc(CSc2nc(-c3ccc(Cl)cc3)cc(-c3ccc(OC)c(OC)c3)n2)cc1` [Compound 29, 2-(4-Methoxybenzylthio)-4-(4-chlorophenyl)-6-(3,4-dimethoxyphenyl)pyrimidine]: the inhibition at 10 µM stood at 19.3%.

In another assay the test system is UACC-257. The assay is described as follows: NCI-60 single-dose screen. The class given is cell-based. The settings on record: Homo sapiens, single dose 10 µM, '-' = no inhibition, read-out: % Growth Inhibition. In short, it runs like this:
as §1
On to `COc1ccc(CSc2nc(-c3ccc(Cl)cc3)cc(-c3ccc(OC)c(OC)c3)n2)cc1` [Compound 29, 2-(4-Methoxybenzylthio)-4-(4-chlorophenyl)-6-(3,4-dimethoxyphenyl)pyrimidine], for which the inhibition at 10 µM amounted to 0.85%.

In the next assay the test system is RPMI-8226. The assay is described as follows: NCI-60 single-dose screen. As to conditions: Homo sapiens, single dose 10 µM, '-' = no inhibition, read-out: % Growth Inhibition. It counts as cell-based. In short, it runs like this:
as §1
With `COc1ccc(CSc2nc(-c3ccc(Cl)cc3)cc(-c3ccc(OC)c(OC)c3)n2)cc1` [Compound 29, 2-(4-Methoxybenzylthio)-4-(4-chlorophenyl)-6-(3,4-dimethoxyphenyl)pyrimidine], the inhibition at 10 µM was found to be 36.9%.

For a further assay, the system named is NCI/ADR-RES. The assay is described as follows: NCI-60 single-dose screen. The class given is cell-based. The settings on record: Homo sapiens, single dose 10 µM, '-' = no inhibition, read-out: % Growth Inhibition. An outline of the steps: as §1
Take `COc1ccc(CSc2nc(-c3ccc(Cl)cc3)cc(-c3ccc(OC)c(OC)c3)n2)cc1` [Compound 29, 2-(4-Methoxybenzylthio)-4-(4-chlorophenyl)-6-(3,4-dimethoxyphenyl)pyrimidine]: the inhibition at 10 µM was 32.1%.

Another assay relates to OVCAR-5. Nature of the assay: NCI-60 single-dose screen. As to conditions: Homo sapiens, single dose 10 µM, '-' = no inhibition, read-out: % Growth Inhibition. It counts as cell-based. An outline of the steps:
as §1
For the molecule `COc1ccc(CSc2nc(-c3ccc(Cl)cc3)cc(-c3ccc(OC)c(OC)c3)n2)cc1` [Compound 29, 2-(4-Methoxybenzylthio)-4-(4-chlorophenyl)-6-(3,4-dimethoxyphenyl)pyrimidine], the inhibition at 10 µM came to 7.38%.

The test system of another assay is OVCAR-8. Nature of the assay: NCI-60 single-dose screen. The class given is cell-based. The settings on record: Homo sapiens, single dose 10 µM, '-' = no inhibition, read-out: % Growth Inhibition. In short, it runs like this: as §1
For `COc1ccc(CSc2nc(-c3ccc(Cl)cc3)cc(-c3ccc(OC)c(OC)c3)n2)cc1` [Compound 29, 2-(4-Methoxybenzylthio)-4-(4-chlorophenyl)-6-(3,4-dimethoxyphenyl)pyrimidine], the inhibition at 10 µM amounted to 19.4%.

The test system of another assay is EKVX. Nature of the assay: NCI-60 single-dose screen. It counts as cell-based. The settings on record: Homo sapiens, single dose 10 µM, '-' = no inhibition, read-out: % Growth Inhibition. An outline of the steps: as §1
As for `COc1ccc(CSc2nc(-c3ccc(Cl)cc3)cc(-c3ccc(OC)c(OC)c3)n2)cc1` [Compound 29, 2-(4-Methoxybenzylthio)-4-(4-chlorophenyl)-6-(3,4-dimethoxyphenyl)pyrimidine], the inhibition at 10 µM stood at 29.7%.

A further assay deals with SNB-19. The assay is described as follows: NCI-60 single-dose screen. It counts as cell-based. The settings on record: Homo sapiens, single dose 10 µM, '-' = no inhibition, read-out: % Growth Inhibition. An outline of the steps:
as §1
Take `COc1ccc(CSc2nc(-c3ccc(Cl)cc3)cc(-c3ccc(OC)c(OC)c3)n2)cc1` [Compound 29, 2-(4-Methoxybenzylthio)-4-(4-chlorophenyl)-6-(3,4-dimethoxyphenyl)pyrimidine]: the inhibition at 10 µM came out at 14.2%.

Another assay concerns A549/ATCC. Nature of the assay: NCI-60 single-dose screen. It counts as cell-based. The settings on record: Homo sapiens, single dose 10 µM, '-' = no inhibition, read-out: % Growth Inhibition. An outline of the steps:
as §1
Consider `COc1ccc(CSc2nc(-c3ccc(Cl)cc3)cc(-c3ccc(OC)c(OC)c3)n2)cc1` [Compound 29, 2-(4-Methoxybenzylthio)-4-(4-chlorophenyl)-6-(3,4-dimethoxyphenyl)pyrimidine], for which the inhibition at 10 µM turned out to be 30.1%.

The next assay deals with SR. Nature of the assay: NCI-60 single-dose screen. The class given is cell-based. As to conditions: Homo sapiens, single dose 10 µM, '-' = no inhibition, read-out: % Growth Inhibition. In short, it runs like this:
as §1
Regarding `COc1ccc(CSc2nc(-c3ccc(Cl)cc3)cc(-c3ccc(OC)c(OC)c3)n2)cc1` [Compound 29, 2-(4-Methoxybenzylthio)-4-(4-chlorophenyl)-6-(3,4-dimethoxyphenyl)pyrimidine], the inhibition at 10 µM is 45.8%.

For another assay, the system named is NCI-H322M. The assay is described as follows: NCI-60 single-dose screen. It counts as cell-based. As to conditions: Homo sapiens, single dose 10 µM, '-' = no inhibition, read-out: % Growth Inhibition. An outline of the steps:
as §1
Consider `COc1ccc(CSc2nc(-c3ccc(Cl)cc3)cc(-c3ccc(OC)c(OC)c3)n2)cc1` [Compound 29, 2-(4-Methoxybenzylthio)-4-(4-chlorophenyl)-6-(3,4-dimethoxyphenyl)pyrimidine], for which the inhibition at 10 µM is 17.4%.

A further assay relates to SNB-75. The assay is described as follows: NCI-60 single-dose screen. It counts as cell-based. The settings on record: Homo sapiens, single dose 10 µM, '-' = no inhibition, read-out: % Growth Inhibition. In short, it runs like this:
as §1
On to `COc1ccc(CSc2nc(-c3ccc(Cl)cc3)cc(-c3ccc(OC)c(OC)c3)n2)cc1` [Compound 29, 2-(4-Methoxybenzylthio)-4-(4-chlorophenyl)-6-(3,4-dimethoxyphenyl)pyrimidine], for which the inhibition at 10 µM was 1.93%.

The subject of a further assay is IGROV1. The assay is described as follows: NCI-60 single-dose screen. The settings on record: Homo sapiens, IGROV-1, single dose 10 µM, '-' = no inhibition, read-out: % Growth Inhibition. The class given is cell-based. An outline of the steps:
as §1
On to `COc1ccc(CSc2nc(-c3ccc(Cl)cc3)cc(-c3ccc(OC)c(OC)c3)n2)cc1` [Compound 29, 2-(4-Methoxybenzylthio)-4-(4-chlorophenyl)-6-(3,4-dimethoxyphenyl)pyrimidine], for which the inhibition at 10 µM came to 6.14%.

Another assay concerns HCT-15. The assay is described as follows: NCI-60 single-dose screen. It counts as cell-based. The settings on record: Homo sapiens, single dose 10 µM, '-' = no inhibition, read-out: % Growth Inhibition. In short, it runs like this:
as §1
For the molecule `COc1ccc(CSc2nc(-c3ccc(Cl)cc3)cc(-c3ccc(OC)c(OC)c3)n2)cc1` [Compound 29, 2-(4-Methoxybenzylthio)-4-(4-chlorophenyl)-6-(3,4-dimethoxyphenyl)pyrimidine], the inhibition at 10 µM amounted to 42.1%.

The test system of another assay is HL-60(TB). The assay is described as follows: NCI-60 single-dose screen. The class given is cell-based. The settings on record: Homo sapiens, single dose 10 µM, '-' = no inhibition, read-out: % Growth Inhibition.
For the molecule `COc1ccc(CSc2nc(-c3ccc(Cl)cc3)cc(-c3ccc(OC)c(OC)c3)n2)cc1` [Compound 29, 2-(4-Methoxybenzylthio)-4-(4-chlorophenyl)-6-(3,4-dimethoxyphenyl)pyrimidine], the inhibition at 10 µM is 38.8%.

The next assay deals with NCI-H23. Nature of the assay: NCI-60 single-dose screen. It counts as cell-based. As to conditions: Homo sapiens, single dose 10 µM, '-' = no inhibition, read-out: % Growth Inhibition. In short, it runs like this:
as §1
Turning to `COc1ccc(CSc2nc(-c3ccc(Cl)cc3)cc(-c3ccc(OC)c(OC)c3)n2)cc1` [Compound 29, 2-(4-Methoxybenzylthio)-4-(4-chlorophenyl)-6-(3,4-dimethoxyphenyl)pyrimidine], the inhibition at 10 µM amounted to 14.6%.

The subject of the next assay is MDA-MB231/ATCC. Nature of the assay: NCI-60 single-dose screen. The class given is cell-based. As to conditions: Homo sapiens, MDA-MB-231, single dose 10 µM, '-' = no inhibition, read-out: % Growth Inhibition. In short, it runs like this:
as §1
As for `COc1ccc(CSc2nc(-c3ccc(Cl)cc3)cc(-c3ccc(OC)c(OC)c3)n2)cc1` [Compound 29, 2-(4-Methoxybenzylthio)-4-(4-chlorophenyl)-6-(3,4-dimethoxyphenyl)pyrimidine], the inhibition at 10 µM stood at 30.3%.

The next assay has as its system PC-3. Nature of the assay: NCI-60 single-dose screen. The class given is cell-based. As to conditions: Homo sapiens, single dose 10 µM, '-' = no inhibition, read-out: % Growth Inhibition. An outline of the steps: as §1
On to `COc1ccc(CSc2nc(-c3ccc(Cl)cc3)cc(-c3ccc(OC)c(OC)c3)n2)cc1` [Compound 29, 2-(4-Methoxybenzylthio)-4-(4-chlorophenyl)-6-(3,4-dimethoxyphenyl)pyrimidine], for which the inhibition at 10 µM amounted to 36.4%.

Another assay has as its system SK-MEL-2. Nature of the assay: NCI-60 single-dose screen. It counts as cell-based. The settings on record: Homo sapiens, single dose 10 µM, '-' = no inhibition, read-out: % Growth Inhibition. An outline of the steps:
as §1
Take `COc1ccc(CSc2nc(-c3ccc(Cl)cc3)cc(-c3ccc(OC)c(OC)c3)n2)cc1` [Compound 29, 2-(4-Methoxybenzylthio)-4-(4-chlorophenyl)-6-(3,4-dimethoxyphenyl)pyrimidine]: the inhibition at 10 µM came to 13.7%.

The next assay deals with 786-0. Nature of the assay: NCI-60 single-dose screen. The class given is cell-based. The settings on record: Homo sapiens, single dose 10 µM, '-' = no inhibition, read-out: % Growth Inhibition. An outline of the steps:
as §1
Turning to `COc1ccc(CSc2nc(-c3ccc(Cl)cc3)cc(-c3ccc(OC)c(OC)c3)n2)cc1` [Compound 29, 2-(4-Methoxybenzylthio)-4-(4-chlorophenyl)-6-(3,4-dimethoxyphenyl)pyrimidine], the inhibition at 10 µM amounted to 11.6%.

The test system of the next assay is UACC-62. The assay is described as follows: NCI-60 single-dose screen. The settings on record: Homo sapiens, single dose 10 µM, '-' = no inhibition, read-out: % Growth Inhibition. It counts as cell-based. An outline of the steps:
as §1
Turning to `COc1ccc(CSc2nc(-c3ccc(Cl)cc3)cc(-c3ccc(OC)c(OC)c3)n2)cc1` [Compound 29, 2-(4-Methoxybenzylthio)-4-(4-chlorophenyl)-6-(3,4-dimethoxyphenyl)pyrimidine], the inhibition at 10 µM was determined as 38.7%.

The subject of the next assay is SK-OV-3. Nature of the assay: NCI-60 single-dose screen. The class given is cell-based. As to conditions: Homo sapiens, single dose 10 µM, '-' = no inhibition, read-out: % Growth Inhibition. In short, it runs like this:
as §1
`COc1ccc(CSc2nc(-c3ccc(Cl)cc3)cc(-c3ccc(OC)c(OC)c3)n2)cc1` [Compound 29, 2-(4-Methoxybenzylthio)-4-(4-chlorophenyl)-6-(3,4-dimethoxyphenyl)pyrimidine]: the inhibition at 10 µM turned out to be 13.9%.

For the next assay, the system named is UO-31. The assay is described as follows: NCI-60 single-dose screen. It counts as cell-based. The settings on record: Homo sapiens, single dose 10 µM, '-' = no inhibition, read-out: % Growth Inhibition. In short, it runs like this: as §1
As to `COc1ccc(CSc2nc(-c3ccc(Cl)cc3)cc(-c3ccc(OC)c(OC)c3)n2)cc1` [Compound 29, 2-(4-Methoxybenzylthio)-4-(4-chlorophenyl)-6-(3,4-dimethoxyphenyl)pyrimidine], the inhibition at 10 µM worked out at 33.1%.
